This is an account of results in patent US20100260694A1, “Methionine Sulfoxide Peptide, Compositions And Methods Of Use” (priority 2009, published 2010).

Series [1] concerns Msr. Kind of series: Msr in NHEK, confirmation by Western blotting. It is filed as cell-based, human. To be noted: overnight incubation. The procedure: (§1) NHEK cells were incubated overnight in culture medium (control) and in culture medium containing oxidized peptide and in culture medium containing unoxidized peptide (control). Concentrations (mg/mL) of the oxidized peptide included 0.01, 0.1 and 0.25. The unoxidized peptide (i.e. Met-enkephalin) was tested only at 0.25 mg/mL. After incubation, mRNA was extracted from the cells and cDNA was prepared by reverse transcription polymerase chain reaction (RT-PCR). Samples were probed for Msr via gel electrophoresis using β-microglobulin as a control.
Background: Immunoblotting shows a protein as a band on a membrane.

The test system of series [2] is Msr. Kind of series: Msr expression in NHEK by RT-PCR and gel electrophoresis. Format: cell-based, human. The note with it: for level of Msr compared to a housekeeping gene: keratinocytes, RT-PCR. The procedure: The first material tried was oxidized methionine (the sulfoxide form). […] However, in an experiment performed in February of 2004, an oxidized polypeptide gave very good results. Investigations continued along those lines.
as §1

Series [3] concerns the target T1, elastase (Sus scrofa, UniProt P00772).
T1 construct: purchased Molecular Probes
Put plainly: Elastase activity assay (Molecular Probes) adapted for inhibition with α1-antitrypsin. It is filed as biochemical. The procedure:
(§2) Methods: An elastase assay from Molecular Probes was utilized and adapted for inhibition with α1-antitrypsin. Fluorescence was measured by excitation at 485 nm and emission at 525 nm in a CytoFluor plate reader.
This was achieved by incubating 0.1 mg/ml elastin and 0.05 units/ml elastase with α1-antitrypsin in a dose-dependent manner (2.5-50 ug/sample). The results are shown in FIG. 8, where con=control; E=elastase; I=inhibitor (included with assay); AT=α1-antitrypsin.
This was done by oxidizing 10 μg of α1-antitrypsin with hydrogen peroxide.
(§3) This was achieved by incubating the A1AT that had been oxidized in 30 mM H2O2 with 0.7 mg/ml msrA and 10 mM DTT for 2 hours. […] We start with 100% elastase. As before, α1-antitrypsin (AT) removes about 90% of the elastase activity (bar labeled Elastase+AT).

Series [4] concerns Epidermal Full Thickness 200 (EFT 200) living skin models. Put plainly: Sunburn Cell production in UVB-irradiated EFT 200 living skin models. Format: cell-based. To be noted: 1 mg/ml for 48 hours, then 100 mJ/cm^2 UVB. The procedure: Methods: Epidermal Full Thickness 200 (EFT 200) living skin models were obtained from MatTek and incubated for 48 hours in media with or without 1 mg/ml of the MetO-enkephalin. The oxidized peptide can be stored at room temperature. Because the peptide is already oxidized, it has relative low reactivity in storage. Two ml of media were added beneath the living skin models, which were situated on a transwell membrane to allow the maintenance of an air/aqueous interface. After 48 hours, the living skin models were exposed to 100 mJ/cm^2 UVB, re-fed, and incubated overnight. The next day, the samples were fixed in 10% formalin and sent to Paragon Bioservices for histological sectioning and H&E staining. Five contiguous microscopic fields for each section were evaluated for the presence of SBC by counting the number of SBC and uninvolved cells and expressing SBC as a percentage of the total. Sunburn Cells are characterized by eosinophilic staining of the cytoplasm and pyknotic nuclei (condensed chromatin).

The test system of series [5] is keratinocytes. Kind of series: Cytotoxicity in keratinocytes. It is filed as cell-based. The note with it: various concentrations, epidermal cells / keratinocytes.
Series [6] can be described thus: UV spectrum of the peptide. Format: physicochemical. The note with it: at 290 nm.
Series [7] addresses oxidized α1-antitrypsin (Homo sapiens, UniProt P01009). Kind of series: Reversal of α1-antitrypsin oxidation by msrA, read out in elastase activity assay. Format: biochemical. The note with it: oxidized A1AT incubated with 0.7 mg/mL MsrA and 10 mM DTT for 2 hours. The procedure: as §2, §3

T1 sequence (P00772 27-266): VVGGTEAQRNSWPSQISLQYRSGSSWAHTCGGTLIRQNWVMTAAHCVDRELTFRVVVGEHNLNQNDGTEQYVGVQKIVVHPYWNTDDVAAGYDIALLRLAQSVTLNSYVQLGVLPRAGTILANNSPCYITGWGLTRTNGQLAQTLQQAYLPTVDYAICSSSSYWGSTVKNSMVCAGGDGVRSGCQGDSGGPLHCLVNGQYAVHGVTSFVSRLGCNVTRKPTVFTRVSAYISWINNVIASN
Sequence of oxidized α1-antitrypsin (P01009 25-418): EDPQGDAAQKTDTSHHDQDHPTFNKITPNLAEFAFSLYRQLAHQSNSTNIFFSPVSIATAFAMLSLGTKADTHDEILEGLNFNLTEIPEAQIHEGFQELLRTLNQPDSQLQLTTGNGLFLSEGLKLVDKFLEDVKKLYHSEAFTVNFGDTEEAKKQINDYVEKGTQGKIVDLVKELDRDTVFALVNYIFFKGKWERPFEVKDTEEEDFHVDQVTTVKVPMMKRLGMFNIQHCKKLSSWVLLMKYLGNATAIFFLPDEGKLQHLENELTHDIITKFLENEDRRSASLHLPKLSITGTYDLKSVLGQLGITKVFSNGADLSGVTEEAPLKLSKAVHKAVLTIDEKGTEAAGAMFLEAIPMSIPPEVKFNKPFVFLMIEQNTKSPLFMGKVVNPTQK

As for `CSCC[C@H](NC(=O)[C@@H](Cc1ccccc1)NC(=O)CNC(=O)CNC(=O)[C@H](N)Cc1ccc(O)cc1)C(=O)O` [Met-enkephalin, Met- enkephalin, reference compound], the “Msr mRNA in treated cells by Western blotting” value in series [1] is on record as “no significant increases of Msr mRNA”. In series [2] (NHEK, overnight incubation, 0.25 mg/mL), the “increase in Msr expression” value is listed as “no significant increase”.

Take `C[S+]([O-])CC[C@H](N)C(=O)O` (some centres unmarked) [oxidized methionine, methionine sulfoxide]: the “level of Msr compared to a housekeeping gene” value in series [2] is “not significantly raised”.

As for “ATox: α1-antitrypsin oxidized in 30 mM H2O2”, in series [3] (bar Elastase+ATox, FIG. 10, oxidized in 30 mM H2O2), the “elastase activity with oxidized α1-antitrypsin” value is recorded as “all of the elastase activity returns”.

Turning to “Oxidized bovine serum albumin: Oxidized bovine serum albumin, a comparatively large protein”, the “level of Msr compared to a housekeeping gene” value in series [2] is “without success”.

With “Tyr - Gly - Gly - Phe - MetO [MetO-enkephalin]”, the “Msr mRNA in treated cells by Western blotting” value in series [1] is recorded as “increases of Msr mRNA”. Besides, the “average increase in Msr expression” value was 18% in series [2] (NHEK, overnight incubation, oxidized peptide concentration 0.01%); 28% in series [2] (NHEK, overnight incubation, oxidized peptide concentration 0.1%); 25.4% in series [2] (NHEK, overnight incubation, oxidized peptide concentration 0.25%). Also, the “average percent reduction in SBC from both trials” value in series [4] came to 31.1%. Besides, the cytotoxicity result in series [5] is “low cytotoxicity”. In series [6], this molecule came in with an extinction coefficient of 145.5. Moreover, the k-value of absorbance in series [6] was 0.24.

For “α1-antitrypsin: serin protease inhibitor made in the liver, inhibits a wide variety of proteases”, the “elastase inhibition after oxidation with H2O2” value in series [3] (10 μg α1-antitrypsin oxidized with 30 mM H2O2, 3 hours, ambient temperature) was “almost all elastase inhibition provided by α1-antitrypsin, is lost”. Besides, the “elastase activity (fluorescence), dose dependence” value in series [3] (0.1 mg/ml elastin, 0.05 units/ml elastase, α1-antitrypsin 2.5-50 ug/sample) is “Fluorescence decreases with increasing concentration of α1-antitrypsin”. The elastase activity removed result in series [3] (bar Elastase+AT, FIG. 10) is reported as “about 90%”.

B1: MsrA: form of Msr involved in the reduction of the S-stereoisomer (protein, UniProt Q9UJ68 24-235, looked up)
Mitochondrial peptide …: GNSASNIVSPQEALPGRKEQTPVAAKHHVNGNRTVEPFPEGTQMAVFGMGCFWGAERKFWVLKGVYSTQVGFAGGYTSNPTYKEVCSEKTGHAEVVRVVYQPEHMSFEELLKVFWENHDPTQGMRQGNDHGTQYRSAIYPTSAKQMEAALSSKENYQKVLSEHGFGPITTDIREGQTFYYAEDYHQQYLSKNPNGYCGLGGTGVSCPVGIKK
As for B1, in series [7], the “re-inhibition of elastase activity” value is reported as “over 59%”.
